Laboratory results as given in PMC12486440, “Design, synthesis, and in silico studies of new benzofuran–pyrazole hybrids as multi-kinase inhibitors with potential antiproliferative activity” (RSC Advances, 2025).

Key:
COLO 205 = settings: Homo sapiens, COLO 205
MDA-MB-468 = settings: single dose 10 μM; breast carcinoma
HepG-2 cancer cells = assay: Annexin V-FITC/PI apoptosis detection; format: cell-based, human; settings: 24 h
Description: The annexin V-FITC apoptosis detection kit (BD Biosciences) was used to quantify the percentage of cells undergoing apoptosis and detect the modes of cell death, either by apoptosis or necrosis, in the presence or absence of the active compound 3d. The experiment was carried out according to the manufacturer's protocol. More details are presented in the SI.
Flow cytometry assay employing annexin V-FITC and propidium iodide double labeling was used to further examine the apoptotic impact of compound 3d.[81,82] […] Additionally, 3d enhanced the late apoptotic effect from 0.17% in the control cells to 15.07% in the treated cells. Moreover, compound 3d promoted necrosis by 4.32% in the 3d-treated cells in comparison with 1.4% in the untreated ones (Table 5 and Fig. 4). These findings support the cytotoxic action of compound 3d on HepG-2 cells. In addition, it implies that its cytotoxic impact is not only due to it initiating programmed cell death pathways in an orderly manner but also its ability to effectively complete the apoptotic process, which results in the fragmentation and removal of cancer cells. […]
5.2.4. Annexin-V FTIC apoptotic study
Estimation of fractional DNA content (aka sub-G1 assay) is a widely used assay to determine apoptosis. Cleavage of genomic DNA into smaller fragments (180–200 bp lengths) is a hallmark for apoptosis in numerous cells. PI stained cells will stain less intensely and show a peak below the G1 peak (Sub-G1). In this work, flow cytometer with Annexin V-fluorescein isothiocyanate/propidium iodide FITC/PI double staining apoptosis detection kit (K101, Biovision) was used to study apoptosis of MCF-7 cells treated with compound 3d. Cells were incubated, collected by centrifugation, re-suspended in 500 μL of 1X binding buffer. Annexin V-FITC (5 μL) and PI (5 μL) was added and incubation was continued for additional 5 min in the dark at room temperature. Annexin V-FITC binding was analyzed by flow cytometry using FITC signal detector (FL1) and PI staining by FL2 phycoerythrin emission signal detector [75].

RPMI-8226 = settings: Homo sapiens, RPMI-8226
HOP-92 = settings: Homo sapiens, HOP-92
Prostate cancer subpanel = assay: NCI 60 subpanel summary; format: cell-based, human
HL-60(TB) = assay: cells; settings: Homo sapiens
HS 578T = settings: Homo sapiens
Renal cancer subpanel = assay: NCI 60 subpanel summary; format: cell-based, human
BT-549 = settings: Homo sapiens, BT-549
NCI/ADR-RES = settings: Homo sapiens, NCI/ADR-RES
MDA-MB-231/ATCC = settings: Homo sapiens
[1] = single dose 10 μM, renal carcinoma
[2] = Homo sapiens, subpanel mean graph midpoint, read-out: MG-MID (GI50)
[3] = full panel MG-MID / subpanel MG-MID

c1ccc(-n2cc(C3CC(c4nc5ccccc5[nH]4)=NN3)c(-c3cc4ccccc4o3)n2)cc1 (stereo not drawn) [3d, 3-(Benzofuran-2-yl)-4-(3-(1H-benzo[d]imidazol-2-yl)-4,5-dihydro-1H-pyrazol-5-yl)-1-phenyl-1H-pyrazole] was tested, and the GI50 (K-562; Homo sapiens, K562) was 3.37 µM, the GI% (K-562; single dose 10 μM, leukemia) was 92.52% and the GI50 (COLO 205) was 5.28 µM. It also gave a GI50 (SF-268; Homo sapiens, SF-268) of 4.51 µM, a GI% (SF-268; single dose 10 μM, CNS cancer) of 72.21% and a GI50 (TK-10; Homo sapiens, TK-10) of 4.97 µM. It also gave a GI% (TK-10; [1]) of 75.14%, a GI50 (NCI-H460; Homo sapiens, NCI-H460) of 3.64 µM and a GI% (NCI-H460; single dose 10 μM, non-small lung carcinoma) of 97.07%. The GI50 (DU-145; Homo sapiens, DU-145) was 5.15 µM, the GI% (DU-145; single dose 10 μM, prostate carcinoma) was 67.57% and the GI% (MDA-MB-468) was 70.95%. It also gave a GI50 (MCF7; Homo sapiens, MCF7) of 2.75 µM, a GI% (MCF7; single dose 10 μM, breast carcinoma) of 85.98% and a GI50 (SN12C; Homo sapiens, SN12C) of 3.42 µM. The GI% (SN12C; [1]) was 88.17%, the Late apoptosis (HepG-2 cancer cells; control 0.17) was 15.07% and the Early apoptosis (HepG-2 cancer cells; control 0.52) was 24.66%. For the same compound, the Necrosis (HepG-2 cancer cells; control 1.4) was 4.32%, the “Apoptosis, total” value (HepG-2 cancer cells; control 2.09) was 44.05% and the GI50 (RPMI-8226) was 3.04 µM. The GI50 (MALME-3M; Homo sapiens, Malme-3M) was 6.19 µM, the GI% (MALME-3M; single dose 10 μM, melanoma) was 81.85% and the GI50 (HOP-92) was 4.78 µM. It also gave a GI50 (Prostate cancer subpanel; [2]) of 4.31 µM, a Selectivity index (Prostate cancer subpanel; [3]) of 0.97 and a GI50 (HL-60(TB)) of 2.56 µM. It also gave a GI50 (CAKI-1; Homo sapiens, CAKI-1) of 2.57 µM, a GI% (CAKI-1; [1]) of 92.45% and a GI50 (HS 578T) of 7.94 µM. For the same compound, the GI50 (786–0; Homo sapiens, 786-0) was 4.31 µM, the GI% (786–0; [1]) was 71.73% and the GI50 (RXF 393; Homo sapiens, RXF 393) was 6.25 µM. The GI% (RXF 393; [1]) was 63.52%, the GI50 (Renal cancer subpanel; [2]) was 4.93 µM and the Selectivity index (Renal cancer subpanel; [3]) was 0.85. The GI50 (BT-549) was 3.85 µM, the GI50 (NCI/ADR-RES) was 3.16 µM and the GI50 (IGROV1; Homo sapiens, IGROV-1) was 3.34 µM. The GI% (IGROV1; single dose 10 μM, ovarian carcinoma) was 89.61%, the GI50 (SNB-19; Homo sapiens, SNB-19) was 3.77 µM and the GI% (SNB-19; single dose 10 μM, CNS cancer) was 92.86%. It also gave a GI50 (MDA-MB-231/ATCC) of 4.78 µM, a GI50 (SW-620; Homo sapiens, SW-620) of 5.95 µM and a GI% (SW-620; single dose 10 μM, colon cancer) of 76.92%.
